Converted amounts (≈) assume the structure as drawn. Where a name gives a salt, the structure may show the parent alone.
Assays:
Escherechia coli [1] = experiment: in vivo antibacterial activity against acute infections in mice, oral; conditions: for responders at 200 mg/kg / responders at 50 mg/kg: Escherichia coli, in Mus musculus, po, 96 h; for responders at 200 mg/kg: read-out: percent animals which survived, E. coli, *200 mg./kg., mice, oral, 200 mg./kg. (footnote *); for responders at 50 mg/kg: read-out: percent animals which survived, E. coli, **50 mg./kg., mice, oral, 50 mg./kg.; for percent animals which survived, E. coli 100 / percent animals which survived, E. coli 25: mice, oral; for percent animals which survived, E. coli 100: 100 mg./kg.; for percent animals which survived, E. coli 25: 25 mg./kg.
Experimental: (§1) The in vivo efficacy of the compounds of the instant invention is determined by the antibacterial activity against acute infections in mice. The acute experimental infections are produced by the intraperitoneal inoculation of standardized culture suspended in either 5% hog gastric mucin or broth.
(§2) Stock cultures of test organisms are normally maintained on slants or in liquid medium. When not routinely used they are maintained at refrigerator temperature or in a lyophilized state. When it becomes to use a culture in animal protection tests the culture is suspended in a volume of saline or broth, and the density of the suspension is measured by a photo-electric colorimeter. From this stock, ten-fold dilutions are prepared. Each dilution is inoculated into a series of mice in order to determine the LD100, the LD100 being the lowest concentration of organisms required to produce 100 percent deaths. […] This means that we are using about 10 LD100 or 10 times the minimum dose required to kill mice. Such a test would also include the use of control animals which receive an inoculum of 10^^-4, 10^^-5 and possibly 10^^-6. These dilutions are included as a check on possible variation in virulence which can occur. Having previously determined, through the virulence titration, that 10^^-4 was the maximum dilution that will kill we naturally expect these animals to die, usually within 24 hours.
(§3) Each organism has its own standardized inoculum level. Some, such as Staphylococcus, may be used at 10^^-1, while others like Streptococcus require weekly animal passage in order to maintain virulence.
(§4) When evaluating an antibiotic for its effectiveness after a single dose, the dose is usually administered 0.5 hour after inoculating the mice with the lethal concentration of organisms. In this type of treatment schedule surviving mice are usually held for 4 days after the treatment and the percent alive is calculated.

[2] = test system: Salmonella cholerasuis var. kunzendorf; experiment: protection against systemic challenge infection in swine; type: in vivo; conditions: intramuscular, day 10, placebo 83
Experimental: Young, 6-8 week old pigs are conditioned for 14 days in isolation rooms and maintained during the entire study on a basal ration consisting of ground yellow corn (78.4%), soybean meal (15%), alfalfa meal (2%), meat bone scraps (2.5%), limestone (0.4%), dicalcium phosphate (0.65%), iodized salt (0.5%), Vitamin pre-mix PPM-5 (0.5%), quadruple delamix (0.05%) and zinc carbonate (7.8 g./100 lbs. mix). All the pigs, which are divided into groups of six, are inoculated on day 0 with 4 ml. (approximately 2.0 × 10^8 organisms) of the stock inoculating suspension. Treatment with the quinoxaline-di-N-oxides of the present invention is carried out on day 0 and day 1 by intramuscular injection at 12 hour intervals at doses of 2.5 and 5 mg./kg. On day 10 the percent mortality in each group is calculated.

Escherechia coli [3] = experiment: in vitro activity (MIC), two-fold serial dilution technique; type: cell-based; conditions: Escherichia coli, 37° C., approximately 24 hours, method gives concentrations as mcg. of compound per ml., read-out: MIC (Minimal Inhibitory Concentration) E. coli
Staphylococcus aureus = experiment: as above; type: cell-based; conditions: 37° C., approximately 24 hours, method gives concentrations as mcg. of compound per ml., read-out: MIC (Minimal Inhibitory Concentration) S. aureus
Streptococcus pyogenes = experiment: in vivo antibacterial activity against acute infections in mice, oral; conditions: for percent animals which survived, S. pyogenes 50: 50 mg./kg.; for percent animals which survived, S. pyogenes 200: 200 mg./kg.
Experimental: as §1, §2, §3, §4

[4] = growth promotion in swine; type: in vivo; conditions: 50 g./ton of feed, 28 days; for Weight Gain Index: control = 100
Experimental: In practice, growth promotion is determined in swine, for instance, by the method wherein young pigs from 5-6 weeks of age and averaging 21.5 lbs. initial body weight are maintained on an ad libitum consumption of water and feed formulation consisting of ground yellow corn (58.1%), soybean meal (19.6%), alfalfa meal (2.0%), dried skim milk (5.0%), dried whey (10.0%), stabilized animal fat (2.5%), limestone (0.6%), dicalcium phosphate (1.1%), iodized salt (0.5%), vitamin premix PPM-5 (0.5%), quadruple delamix (0.05%), and zinc carbonate (156 g./2000 lbs. mix). The pigs are divided into groups of 32 pigs each and are held for a pre-experimental period of 3 days prior to starting the experiment. The quinoxaline-di-N-oxides of the present invention are added to the feed at a ratio of 50 g. of compound per ton of feed. After 28 days the efficacy of said added compounds on growth promotion is measured by a comparison of the growth in terms of weight gain of the treated animals with the untreated control group, which is arbitrarily assigned a weight gain Index of 100. For example, if a compound effects a growth 23% greater than the control group (with an Index of 100) it would be assigned a value of 123, etc.
Employing the previously described procedure for determining growth promotion in animals, the following quinoxaline-di-N-oxides were tested at 50 g./ton of feed in swine for a period of 28 days and provided the following results: […]

| Structure (SMILES) | responders at 200 mg/kg (Escherechia coli [1]) [%] | responders at 50 mg/kg (Escherechia coli [1]) [%] | MIC (Escherechia coli [3]) [µg/mL] | MIC (Staphylococcus aureus) [µg/mL] | other results |
| --- | --- | --- | --- | --- | --- |
| Cc1c(C(=O)OCCOC(=O)CCl)[n+]([O-])c2ccccc2[n+]1[O-] | 100 | 100 | – | – | – |
| Cc1c(C(=O)OCCOC(=O)C[N+](C)(C)C)[n+]([O-])c2ccccc2[n+]1[O-] | 90 | 40 | – | – | – |
| CCCCCCCCCC(=O)OCCOC(=O)c1c(C)[n+]([O-])c2ccccc2[n+]1[O-] | 100 | 70 | – | – | – |
| CCOC(=O)OCCOC(=O)c1c(C)[n+]([O-])c2ccccc2[n+]1[O-] | – | – | – | – | percent animals which survived, E. coli 100 (Escherechia coli [1]): 30% |
| Cc1c(C(=O)OCCOC(=O)OCC(C)C)[n+]([O-])c2ccccc2[n+]1[O-] | 90 | – | – | – | – |
| CCC(=O)OCCOC(=O)c1c(C)[n+]([O-])c2ccccc2[n+]1[O-] | 90 | 80 | – | – | – |
| CCCC(=O)OCCOC(=O)c1c(C)[n+]([O-])c2ccccc2[n+]1[O-] | 90 | 80 | – | – | – |
| CCCCC(=O)OCCOC(=O)c1c(C)[n+]([O-])c2ccccc2[n+]1[O-] | 100 | 60 | – | – | – |
| CCCCCC(=O)OCCOC(=O)c1c(C)[n+]([O-])c2ccccc2[n+]1[O-] | 90 | 0 | – | – | – |
| CCCCCCC(=O)OCCOC(=O)c1c(C)[n+]([O-])c2ccccc2[n+]1[O-] | 100 | 10 | – | – | – |
| CCCCCCCC(=O)OCCOC(=O)c1c(C)[n+]([O-])c2ccccc2[n+]1[O-] | 100 | 50 | – | – | – |
| Cc1c(C(=O)OCCOC(=O)CCCC(=O)O)[n+]([O-])c2ccccc2[n+]1[O-] | 90 | 50 | – | – | – |
| CC(=O)OCCOC(=O)c1c(C)[n+]([O-])c2ccccc2[n+]1[O-] [3-Methyl-2-quinoxalinecarboxylic acid, 2-(acetyloxy)ethyl ester, 1,4-dioxide] | – | – | – | – | % Mortality ([2]; 2.5 mg./kg. × 4 at 12 hour intervals): 67%; % Mortality ([2]; 5.0 mg./kg. × 4 at 12 hour intervals): 17% |
| CC1(C)S[C@@H]2[C@H](NC(=O)Cc3ccccc3)C(=O)N2[C@H]1C(=O)O [Benzylpenicillin (K Salt), Benzylpenicillin, reference compound] | – | – | > 100 | 0.156 | – |
| CCN(CC)CCOC(=O)c1c(C)[n+]([O-])c2ccccc2[n+]1[O-].Cl [H (CH2)2 N(C2 H5)2.HCl, 3-Methyl-2-quinoxalinecarboxylic acid, 2-(diethylamino)ethyl ester, 1,4-dioxide hydrochloride] | – | – | 12.5 | 100 | – |
| Cc1c(C(=O)OCCN(C)C)[n+]([O-])c2ccccc2[n+]1[O-].Cl [H (CH2)2 N(CH3)2.HCl, 3-Methyl-2-quinoxalinecarboxylic acid, 2-(dimethylamino)ethyl ester, 1,4-dioxide hydrochloride] | – | – | 6.25 | 100 | percent animals which survived, S. pyogenes 50 (Streptococcus pyogenes): 20%; percent animals which survived, S. pyogenes 200 (Streptococcus pyogenes): 70%; percent animals which survived, E. coli 25 (Escherechia coli [1]): 40%; percent animals which survived, E. coli 100 (Escherechia coli [1]): 100% |
| CCN(C)CCOC(=O)c1c(C)[n+]([O-])c2ccccc2[n+]1[O-].Cl [H (CH2)2 N(CH3)C2 H5.HCl, 3-Methyl-2-quinoxalinecarboxylic acid, 2-(methylethylamino)-ethyl ester, 1,4-dioxide hydrochloride] | – | – | 12.5 | 100 | percent animals which survived, S. pyogenes 50 (Streptococcus pyogenes): 60%; percent animals which survived, S. pyogenes 200 (Streptococcus pyogenes): 100%; percent animals which survived, E. coli 25 (Escherechia coli [1]): 0%; percent animals which survived, E. coli 100 (Escherechia coli [1]): 80% |
| Cc1c(C(=O)OCCN)[n+]([O-])c2ccccc2[n+]1[O-] [H (CH2)2 NH2.HCl, 3-Methyl-2-quinoxalinacarboxylic acid, 2-aminoethyl ester, 1,4-dioxide hydrochloride] | – | – | – | – | % Growth Over Control [4]: 39%; Weight Gain Index [4]: 139; percent animals which survived, S. pyogenes 50 (Streptococcus pyogenes): 30%; percent animals which survived, S. pyogenes 200 (Streptococcus pyogenes): 90%; percent animals which survived, E. coli 25 (Escherechia coli [1]): 100% |
| Cc1c(C(=O)OCCO)[n+]([O-])c2ccccc2[n+]1[O-] [H (CH2)2 OH, 3-Methyl-2-quinoxalinecarboxylic acid, 2-hydroxyethyl ester, 1,4-dioxide] | – | – | – | – | percent animals which survived, S. pyogenes 50 (Streptococcus pyogenes): 60%; percent animals which survived, S. pyogenes 200 (Streptococcus pyogenes): 100%; percent animals which survived, E. coli 25 (Escherechia coli [1]): 80%; percent animals which survived, E. coli 100 (Escherechia coli [1]): 100% |
| CCN(CC)CCCOC(=O)c1c(C)[n+]([O-])c2ccccc2[n+]1[O-].Cl [H (CH2)3 N(C2 H5)2.HCl, 3-Methyl-2-quinoxalinecarboxylic acid, 3-(diethylamino)propyl ester, 1,4-dioxide hydrochloride] | – | – | 12.5 | 200 | – |
| Cc1c(C(=O)OCCCN(C)C)[n+]([O-])c2ccccc2[n+]1[O-].Cl [H (CH2)3 N(CH3)2.HCl, 3-Methyl-2-quinoxalinecarboxylic acid, 3-(dimethylamino)propyl ester, 1,4-dioxide hydrochloride] | – | – | – | – | percent animals which survived, S. pyogenes 50 (Streptococcus pyogenes): 20%; percent animals which survived, S. pyogenes 200 (Streptococcus pyogenes): 100%; percent animals which survived, E. coli 25 (Escherechia coli [1]): 40%; percent animals which survived, E. coli 100 (Escherechia coli [1]): 80% |
| CCN(CC)CC(C)OC(=O)c1c(C)[n+]([O-])c2ccccc2[n+]1[O-] (centres unmarked) [H CH(CH3)CH2 N(C2 H5)2.HCl] | – | – | – | – | percent animals which survived, S. pyogenes 50 (Streptococcus pyogenes): 20%; percent animals which survived, S. pyogenes 200 (Streptococcus pyogenes): 80%; percent animals which survived, E. coli 25 (Escherechia coli [1]): 0%; percent animals which survived, E. coli 100 (Escherechia coli [1]): 60% |
| Cc1c(C(=O)OC(C)CN(C)C)[n+]([O-])c2ccccc2[n+]1[O-].Cl (centres unmarked) [H CH(CH3)CH2 N(CH3)2.HCl, 3-Methyl-2-quinoxalinecarboxylic acid, 1-methyl-2-(dimethyl-amino)ethyl ester, 1,4-dioxide hydrochloride] | – | – | 100 | 200 | – |
| CC(=O)OCCOC(=O)c1c(C)[n+]([O-])c2ccccc2[n+]1[O-] [drawing 80] | – | – | 50 (≈ 163 µM) | 12.5 (≈ 40.8 µM) | – |
| CCNC(=O)OCCOC(=O)c1c(C)[n+]([O-])c2ccccc2[n+]1[O-] [drawing 82] | – | – | > 200 | 25 (≈ 74.6 µM) | – |
| Cc1c(C(=O)OCCOC(=O)CCC(=O)O)[n+]([O-])c2ccccc2[n+]1[O-] [drawing 83] | – | – | > 200 | 200 (≈ 549 µM) | – |
| CC(=O)OCCOC(=O)c1c(C)[n+]([O-])c2ccccc2[n+]1[O-] [drawing 85] | – | – | – | – | percent animals which survived, S. pyogenes 50 (Streptococcus pyogenes): 80%; percent animals which survived, S. pyogenes 200 (Streptococcus pyogenes): 80%; percent animals which survived, E. coli 25 (Escherechia coli [1]): 80%; percent animals which survived, E. coli 100 (Escherechia coli [1]): 100% |
| CCNC(=O)OCCOC(=O)c1c(C)[n+]([O-])c2ccccc2[n+]1[O-] [drawing 89] | 30 | 40 | – | – | – |
| Cc1c(C(=O)OCCOC(=O)CCC(=O)O)[n+]([O-])c2ccccc2[n+]1[O-] [drawing 100] | 100 | 80 | – | – | – |
| CC(=O)OCCOC(=O)c1c(C)[n+]([O-])c2ccccc2[n+]1[O-] [drawing 103] | – | – | – | – | % Growth Over Control [4]: 53%; Weight Gain Index [4]: 153 |

— patent US4007184A, “Substituted alkyl esters of quinoxaline-di-N-oxide-2-carboxylic acid” (Pfizer Inc., priority 1975, dated 1977)
